≈ marks a conversion by molar mass, not a printed value. Read-outs that look alike come from different tables or passages of the source. Bounds are passed on as bounds.

Holding throughout (format): cell-based
One test relates to S.aureus 209p. Put plainly: Minimum inhibitory concentration, S.aureus 209p. Conditions: Staphylococcus aureus. As to the method: (§1) Minimum inhibitory concentrations (MIC) were determined for the compounds of this invention.
The next test deals with S.aureus R. Nature of the test: Minimum inhibitory concentration, S.aureus R. The conditions noted are these: Staphylococcus aureus. As to the method:
as §1

A further test deals with E. coli NIHJ. Nature of the test: Minimum inhibitory concentration, E. coli NIHJ. The conditions noted are these: Escherichia coli. As for the experimental part: as §1
A further test has as its system E. coli 609 (R). Put plainly: Minimum inhibitory concentration, E. coli 609 (R). Conditions: Escherichia coli, read-out: Minimum Inhibitory Concentration. As to the method:
as §1

The test system of the next test is Sh. flexneri 2a. Nature of the test: Minimum inhibitory concentration, Sh. flexneri 2a. The conditions noted are these: Shigella flexneri. As for the experimental part:
as §1

The test system of the next test is Klebsiella 806. Nature of the test: Minimum inhibitory concentration, Klebsiella 806. As to the method: as §1
The test system of the next test is Klebsiella 846. Nature of the test: Minimum inhibitory concentration, Klebsiella 846. As to the method: as §1
A further test has as its system Prot. vulgaris. Put plainly: Minimum inhibitory concentration, Prot. vulgaris. The conditions noted are these: Proteus vulgaris. As to the method:
as §1

The subject of the next test is Salm. ent. Gaertner. Put plainly: Minimum inhibitory concentration, Salm. ent. Gaertner. Conditions: read-out: Minimum Inhibitory Concentration. As for the experimental part: as §1

In the case of `COC1(NC(=O)C[n+]2cc([O-])on2)C(=O)N2C(C(=O)O)=C(CSc3nnnn3C)CSC21` (stereo not drawn), the MIC worked out at 0.8 µg/mL (≈ 1.65 µM) against S.aureus 209p; 1.5 µg/mL (≈ 3.1 µM) against S.aureus R; 1.5 µg/mL (≈ 3.1 µM) in the test with E. coli NIHJ; 1.5 µg/mL (≈ 3.1 µM) in the test with E. coli 609 (R) (E. coli 609 (R)); 1.5 µg/mL (≈ 3.1 µM) in the test on Sh. flexneri 2a; 1.5 µg/mL (≈ 3.1 µM) against Klebsiella 806. The MIC in the test on Klebsiella 846 is more than 200 µg/mL; in the test with Prot. vulgaris, 6.2 µg/mL (≈ 12.8 µM); with Salm. ent. Gaertner (Salm. ent. Gaertner) it was 0.8 µg/mL (≈ 1.65 µM).
With `COC1(NC(=O)COc2ccon2)C(=O)N2C(C(=O)O)=C(CSc3nnnn3C)CSC21` (stereo not drawn), the MIC was 0.2 µg/mL (≈ 0.414 µM) with S.aureus 209p; 0.8 µg/mL (≈ 1.65 µM) against S.aureus R; 3.1 µg/mL (≈ 6.41 µM) against E. coli NIHJ; 3.1 µg/mL (≈ 6.41 µM) in the test on E. coli 609 (R) (E. coli 609 (R)); 3.1 µg/mL (≈ 6.41 µM) in the test with Sh. flexneri 2a; 3.1 µg/mL (≈ 6.41 µM) against Klebsiella 806. Further, the MIC is more than 400 µg/mL with Klebsiella 846, 6.2 µg/mL (≈ 12.8 µM) against Prot. vulgaris and 1.5 µg/mL (≈ 3.1 µM) in the test with Salm. ent. Gaertner (Salm. ent. Gaertner).
For `COC1(NC(=O)CSc2ccon2)C(=O)N2C(C(=O)O)=C(CSc3nnnn3C)CSC21` (stereo not drawn), the MIC was determined as 0.2 µg/mL (≈ 0.4 µM) with S.aureus 209p; 0.8 µg/mL (≈ 1.6 µM) with S.aureus R; 3.1 µg/mL (≈ 6.21 µM) against E. coli NIHJ; 3.1 µg/mL (≈ 6.21 µM) in the test on E. coli 609 (R) (E. coli 609 (R)); 3.1 µg/mL (≈ 6.21 µM) in the test on Sh. flexneri 2a; 6.2 µg/mL (≈ 12.4 µM) in the test on Klebsiella 806. In addition, the figures for the MIC with Klebsiella 846, in the test on Prot. vulgaris and in the test with Salm. ent. Gaertner (Salm. ent. Gaertner) were more than 400 µg/mL, 3.1 µg/mL (≈ 6.21 µM) and 0.8 µg/mL (≈ 1.6 µM), respectively.
In the case of `COC1(NC(=O)CSc2ccon2)C(=O)N2C(C(=O)O)=C(COC(C)=O)CSC21` (stereo not drawn) [3-Acetoxymethyl-7β-(3-isoxazolylthioacetamido)-7α-methoxy-3-cephem-4-carboxylic acid], the MIC against S.aureus 209p is 0.2 µg/mL (≈ 0.451 µM); in the test on S.aureus R, 0.8 µg/mL (≈ 1.8 µM); in the test on Sh. flexneri 2a, 6.2 µg/mL (≈ 14 µM); against Klebsiella 846, more than 400 µg/mL.
As to `CCS(=O)(=O)CC(=O)N[C@]1(OC)C(=O)N2C(C(=O)O)=C(CSc3nnnn3C)CS[C@@H]21` [C2 H 5 SO2, 7β-Ethylsulfonylacetamido-7α-methoxy-3-(1-methyl-1H-tetrazol-5-yl)thiomethyl-3-cephem-4-carboxylic acid], the MIC with S.aureus 209p, against S.aureus R, in the test with E. coli NIHJ, with E. coli 609 (R) (E. coli 609 (R)), with Sh. flexneri 2a and in the test on Klebsiella 806 was 1.5 µg/mL (≈ 3.05 µM) throughout. In addition, the results for the MIC against Klebsiella 846, against Prot. vulgaris and in the test on Salm. ent. Gaertner (Salm. ent. Gaertner) were more than 400 µg/mL, 6.2 µg/mL (≈ 12.6 µM) and 0.8 µg/mL (≈ 1.62 µM), respectively.
In the case of `COC1(NC(=O)Cc2ccccc2)C(=O)N2C(C(=O)O)=C(COC(N)=O)CSC21` (stereo not drawn) [C6 H5, reference compound], the MIC in the test with S.aureus 209p was 0.8 µg/mL (≈ 1.9 µM); in the test with S.aureus R, 3.1 µg/mL (≈ 7.36 µM); against E. coli NIHJ it was 25 µg/mL (≈ 59.3 µM); with E. coli 609 (R) (E. coli 609 (R)) it was 25 µg/mL (≈ 59.3 µM); against Sh. flexneri 2a, 12.5 µg/mL (≈ 29.7 µM); in the test on Klebsiella 806 it was 25 µg/mL (≈ 59.3 µM). For the same compound, the MIC against Klebsiella 846 was more than 400 µg/mL; against Prot. vulgaris it was 25 µg/mL (≈ 59.3 µM); with Salm. ent. Gaertner, 12.5 µg/mL (≈ 29.7 µM).
As for `COC1(NC(=O)CS(C)(=O)=O)C(=O)N2C(C(=O)O)=C(CSc3nnnn3C)CSC21` (stereo not drawn) [CH3 SO2, 7α-Methoxy-7β-methylsulfonylacetamido-3-(1-methyl-1H-tetrazol-5-yl)thiomethyl-3-cephem-4-carboxylic acid], the MIC is 0.8 µg/mL (≈ 1.67 µM) against S.aureus 209p; 1.5 µg/mL (≈ 3.13 µM) in the test on Sh. flexneri 2a; 0.8 µg/mL (≈ 1.67 µM) against Klebsiella 806; 400 µg/mL (≈ 836 µM) against Klebsiella 846; 0.4 µg/mL (≈ 0.836 µM) with Salm. ent. Gaertner (Salm. ent. Gaertner).
For `CC(=O)OCC1=C(C(=O)O)N2C(=O)[C@@H](NC(=O)Cc3cccs3)[C@H]2SC1` [Cephalothin, reference compound], the MIC is 6.2 µg/mL (≈ 15.6 µM) in the test with E. coli NIHJ; 25 µg/mL (≈ 63.1 µM) in the test on E. coli 609 (R); 12.5 µg/mL (≈ 31.5 µM) in the test on Sh. flexneri 2a; 6.2 µg/mL (≈ 15.6 µM) against Klebsiella 806; more than 200 µg/mL in the test on Klebsiella 846; 6.2 µg/mL (≈ 15.6 µM) against Prot. vulgaris. The MIC in the test with Salm. ent. Gaertner (Salm. ent. Gaertner) was 6.2 µg/mL (≈ 15.6 µM).
For `C#CCSCC(=O)NC1(OC)C(=O)N2C(C(=O)O)=C(CSc3nnnn3C)CSC21` (stereo not drawn) [HCCCH2 S, 3-(1-Methyl-1H-tetrazol-5-yl)thiomethyl-7β-propargylthioacetamido-7α-methoxy-3-cephem-4-carboxylic acid], the MIC against S.aureus 209p was 0.2 µg/mL (≈ 0.425 µM); against S.aureus R, 0.8 µg/mL (≈ 1.7 µM); against Sh. flexneri 2a, 3.1 µg/mL (≈ 6.59 µM); against Klebsiella 846 it was 400 µg/mL (≈ 850 µM); in the test on Salm. ent. Gaertner (Salm. ent. Gaertner), 0.8 µg/mL (≈ 1.7 µM).
For the compound `COC1(NC(=O)CSCCO)C(=O)N2C(C(=O)O)=C(CSc3nnnn3C)CSC21` (stereo not drawn) [HOCH2 CH2 S, 7β-(2-Hydroxyethyl)thioacetamido-7α-methoxy-3-(1-methyl-1H-tetrazol-5-yl)thiomethyl-3-cephem-4-carboxylic acid], the MIC was found to be 0.8 µg/mL (≈ 1.68 µM) in the test with S.aureus 209p; 1.5 µg/mL (≈ 3.15 µM) against S.aureus R; 1.5 µg/mL (≈ 3.15 µM) in the test with E. coli NIHJ; 1.5 µg/mL (≈ 3.15 µM) with E. coli 609 (R) (E. coli 609 (R)); 3.1 µg/mL (≈ 6.5 µM) in the test with Sh. flexneri 2a; 1.5 µg/mL (≈ 3.15 µM) in the test on Klebsiella 806. Also, the MIC with Klebsiella 846 was determined as 400 µg/mL (≈ 839 µM); with Prot. vulgaris, 6.2 µg/mL (≈ 13 µM); in the test on Salm. ent. Gaertner (Salm. ent. Gaertner), 1.5 µg/mL (≈ 3.15 µM).
On to `CO[C@@]1(NC(=O)CSCN=[N+]=[N-])C(=O)N2C(C(=O)O)=C(COC(N)=O)CS[C@@H]21` [N3 CH2 S, OCONH2, 7β-Azidomethylthioacetamido-3-carbamoyloxymethyl-7α-methoxy-3-cephem-4-carboxylic acid], for which the MIC against S.aureus 209p turned out to be 0.2 µg/mL (≈ 0.462 µM); against S.aureus R, 1.5 µg/mL (≈ 3.47 µM); with E. coli NIHJ it was 3.1 µg/mL (≈ 7.17 µM); in the test on E. coli 609 (R) (E. coli 609 (R)), 6.2 µg/mL (≈ 14.3 µM); against Sh. flexneri 2a, 3.1 µg/mL (≈ 7.17 µM); against Klebsiella 806 it was 3.1 µg/mL (≈ 7.17 µM). Also, the MIC in the test on Klebsiella 846 is more than 400 µg/mL; against Prot. vulgaris it was 3.1 µg/mL (≈ 7.17 µM); in the test with Salm. ent. Gaertner (Salm. ent. Gaertner), 1.5 µg/mL (≈ 3.47 µM).
As to `COC1(NC(=O)CSCN=[N+]=[N-])C(=O)N2C(C(=O)O)=C(CSc3nnnn3C)CSC21` (stereo not drawn) [N3 CH2 S], the MIC worked out at 0.4 µg/mL (≈ 0.82 µM) against S.aureus 209p; 0.4 µg/mL (≈ 0.82 µM) against S.aureus R; 3.1 µg/mL (≈ 6.36 µM) in the test with E. coli NIHJ; 3.1 µg/mL (≈ 6.36 µM) in the test with E. coli 609 (R) (E. coli 609 (R)); 1.5 µg/mL (≈ 3.08 µM) against Sh. flexneri 2a; 3.1 µg/mL (≈ 6.36 µM) in the test on Klebsiella 806. In addition, the MIC in the test with Klebsiella 846 was more than 200 µg/mL; in the test on Prot. vulgaris it was 1.5 µg/mL (≈ 3.08 µM); in the test with Salm. ent. Gaertner (Salm. ent. Gaertner), 0.8 µg/mL (≈ 1.64 µM).
Consider `COC1(NC(=O)CS(=O)(=O)CCC#N)C(=O)N2C(C(=O)O)=C(CSc3nnnn3C)CSC21` (stereo not drawn) [NCCH2 CH2 SO2, 7β-(2-Cyanoethylsulfonyl)acetamido-7α-methoxy-3-(1-methyl-1H-tetrazol-5-yl)thiomethyl-3-cephem-4-carboxylic acid], for which the MIC with S.aureus 209p worked out at 1.5 µg/mL (≈ 2.9 µM); in the test on S.aureus R, 3.1 µg/mL (≈ 5.99 µM); against E. coli NIHJ, 1.5 µg/mL (≈ 2.9 µM); in the test with E. coli 609 (R) (E. coli 609 (R)) it was 1.5 µg/mL (≈ 2.9 µM); against Sh. flexneri 2a, 3.1 µg/mL (≈ 5.99 µM); against Klebsiella 806, 1.5 µg/mL (≈ 2.9 µM). In addition, the figures for the MIC in the test on Klebsiella 846, with Prot. vulgaris and in the test with Salm. ent. Gaertner (Salm. ent. Gaertner) were 200 µg/mL (≈ 386 µM), 6.2 µg/mL (≈ 12 µM) and 0.8 µg/mL (≈ 1.55 µM), respectively.

For the origin of these results see US4007177A, “Cephalosporin derivatives” (Sankyo Company Limited, priority 1973, dated 1977).
